According to patent US20250020651A1, “PERSONALIZED MODULATION THERAPY FOR CANCER” (Faeth Therapeutics, Inc., priority 2021, published 2025):

Columns and labels:
[1] = tested on: Pancreatic cancer cells such as BxPC3, CFPAC1, PANC1, DANG, and PATU8902; assay: Crystal Violet cell growth with chemotherapy drugs in complete or P/S/G free media; assay type: cell-based, Human; conditions: P/S/G free media vs complete media, +10% dialyzed FBS, 3 days, Crystal Violet staining
Protocol: A study was performed to evaluate the efficacy of a disclosed composition in the treatment of cancer when combined with a chemotherapy drug. Pancreatic cancer cells such as BxPC3, CFPAC1, PANC1, DANG, and PATU8902 were treated with either Gemcitabine (GEM), Paclitaxel (PAC), GEM+PAC, and FOLFIRINOX (which is a combination of 5FU, Oxaliplatin, Folinic acid, and Irinotecan), in combination with complete media, or with media free of the amino acids […]), as indicated in FIG. 4 rows A-D. Cells were seeded in 96-well plates and in complete media+10% FBS. 24 hours later, cells were washed with PBS followed by addition of the indicated drugs with either complete or P/S/G free media+10% dialyzed FBS. Cells were grown for 3 more days, and cell growth was measured using Crystal Violet staining. […] Error bars denote the standard deviation.

[2] = tested on: Pancreatic cancer cell lines such as BxPC3, CFPAC1, PANC1, DANG and PATU8902; assay: Crystal Violet cell growth with serabelisib in complete or P/S/G free media; assay type: cell-based, Human; conditions: P/S/G free media vs complete media, 3 days, Crystal Violet staining
Protocol: A study was performed to evaluate the efficacy of disclosed compositions in the treatment of cancer when combined with a targeted anti-cancer therapy. Pancreatic cancer cell lines such as BxPC3, CFPAC1, PANC1, DANG and PATU8902 were treated with an alpha specific PI3K inhibitor, serabelisib. Cells were seeded in 96-well plates and in complete media+10% FBS. 24 hours later, cells were washed with PBS followed by addition of serabelisib with either complete or P/S/G free media+10% dialysed FBS (FIG. 6A-6F). Cells were grown for 3 more days and cell growth was measured using Crystal Violet staining. Error bars denote standard deviation. […] P/S/G starvation pushes the response curve down and to the left meaning lower concentrations of drug achieve the same cell kill.

| SMILES | effect of restriction of proline, serine, and glycine on cell growth response to the drug [1] | cell kill by serabelisib under P/S/G starvation [2] |
| --- | --- | --- |
| Nc1ccn([C@@H]2O[C@H](CO)[C@@H](O)C2(F)F)c(=O)n1 [gemcitabine, Gemcitabine] | sensitized cancer cells |  |
| CC(=O)O[C@H]1C(=O)[C@@]2(C)[C@H]([C@H](OC(=O)c3ccccc3)[C@]3(O)C[C@H](OC(=O)[C@H](O)[C@@H](NC(=O)c4ccccc4)c4ccccc4)C(C)=C1C3(C)C)[C@]1(OC(C)=O)CO[C@@H]1C[C@@H]2O [paclitaxel, Paclitaxel] | sensitized cancer cells |  |
| Nc1nc2cc(-c3ccc4ncc(C(=O)N5CCOCC5)n4c3)ccc2o1 [serabelisib] |  | improved cell kill at lower drug concentrations |
